Experiments:
[1] = system: mouse lymphoma cell line L5178Y TK^+/−; assay: Generation of reactive oxygen species (ROS); format: cell-based; settings: up to 100 μM, 3 h exposure, vs vehicle control
Procedure: The objective of the study was to investigate the generation of reactive oxygen species (ROS) induced by the test item, estetrol (E4), in a mouse lymphoma cell line L5178Y TK^+/−.
L5178Y TK^+/− cells in logarithmic phase of growth were plated in black 96 well cell culture plates at 1×10^4 cells in 90 μL of cell culture media. Controls and test item in triplicate were applied to the cells as a 10× concentrate in 10 μL of a 10% ethanol solution in PBS (final concentration of ethanol on plate was 1%). Cells were incubated for 3 hours at 37° C., 5% CO2, and the generation of ROS was evaluated by fluorescence with a ROS reagent: the ROS reagent was freshly prepared by dissolving one ampoule of reagent (50 μg) in 70 μL DMSO and further diluting this with 2.1 mL of pre-warmed PBS. 10 μL of ROS reagent was added to each well and the plate were shaken for 30 seconds in the dark. The plates were incubated approximately at 37° C., 5% CO2 for 1 h 30 min and fluorescence was read on a plate scanner with excitation at 492 nm and emission at 520 nm.

[2] = Tissue distribution of radioactivity by quantitative whole body autoradiography, non-pigmented rats; format: in vivo, rat (female Sprague-Dawley); settings: female non-pigmented rats; for Concentration of radioactivity in tissue, Skin: Non-pigmented / Tissue: Blood ratio, Skin: Non-pigmented: single oral 15 mg/kg
Procedure: Times for analysis were: 0.5, 1, 2, 5, 8, 24 and 48 hours.
Distribution of radioactivity in tissues was determined and quantified using the Fuji FLA-5100 fluorescent image analyser and associated Tina and SeeScan software. Tissue concentrations of radioactivity were determined using calibrated autoradiographic microscales produced by GE Healthcare. A standard curve was produced using the microscales from which tissue concentrations of radioactivity were determined (nCi/g). These values were then converted into pg equivalents/g using the specific activity of the dose formulation.
Radioactivity concentrations are also reported as μg equivalents/g.

[3] = Tissue distribution of radioactivity by quantitative whole body autoradiography, partially pigmented rats; settings: female partially pigmented rats; for Concentration of radioactivity in tissue, Skin: Non-pigmented / Concentration of radioactivity in tissue, Skin: Pigmented / Tissue: Blood ratio, Skin: Non-pigmented / Tissue: Blood ratio, Skin: Pigmented / Total amount of radioactivity in tissue, Skin (non-pigmented) / Total amount of radioactivity in tissue, Skin (pigmented): single oral 15 mg/kg
Procedure: Tissue distribution was determined in female rats (partially pigmented and non-pigmented) using [^14C]-estetrol.
A group of six female Lister Hooded rats each received a single oral dose of [^14C]-estetrol. At each selected time (see below) one animal was killed (by overdose of CO2) followed by immediate snap freezing in hexane/solid CO2. The carcasses were retained for examination of the tissue distribution of radioactivity using the technique of quantitative whole body autoradiography (QWBA).
Times for analysis were: (0.5, 8, and 24 hours, 7, 14 and 35 days).
Frozen carcasses were subjected to whole-body autoradiography.
Where concentrations are reported, radioactivity was assumed to be associated with [^14C]-estetrol or any metabolic products derived from [^14C]-estetrol. The specific activities of the dosed test compounds were used for the calculation of concentrations in all cases. Recoveries of radioactivity are reported as percentage of administered radioactivity (% dose). Radioactivity concentrations are also reported as μg equivalents/g.

[4] = system: Normal Human Dermal Fibroblasts (NHDFs); assay: Colonization of acellular area (IBIDI gap closure), fibroblasts; format: cell-based; settings: 10 ng/ml, both in presence and absence of MMC
Procedure: The study consists in an in vitro assay aiming to evaluate the properties of E4 and E2 at 4 concentrations each on keratinocytes and fibroblasts. In this assay, the measurement of the colonization of a standard acellular surface generated from a confluent monolayer of cells using a dedicated culture device (IBIDI chamber) is performed. The assay is performed in absence and in presence of a proliferation inhibitor to focus on cell proliferation and migration or on migration only, respectively.
Normal Human foreskin-derived Dermal Fibroblast (NHDFs, ATCC) cells were grown in phenol-free Dulbecco's Modified Eagle Medium (DMEM, ThermoFisher Scientific) supplemented with 10% of Foetal Bovine Serum (FBS, ThermoFisher Scientific), L-glutamine and antibiotics. The cells were maintained in a humidified incubator at 37° C. with a 5% CO2 atmosphere.
Cells were plated in 2-well silicone inserts with a defined cell free gap (IBIDI chambers; IBIDI GmbH, 80209) that was previously inserted on 12-well culture plates. This culture device allows to create a standardized 500 μm±100 μm cell free gap for monitoring cell colonization. 24 h after seeding, when the culture reached high confluency, cells in the insert were treated, or not, with mitomycin C (MMC) at 10 μg/ml during 2 h. After these 2 hours, the insert was removed, and cells were treated with E2 or E4 in presence or not of MMC for additional 2 h. Then, if appropriate, the culture medium was removed and cells were treated with E2 or E4 for 22 h, in absence of MMC.
For the assay, keratinocytes were plated in Epilife medium without HKGS and all the treatments were performed in this medium. Fibroblasts were plated in DMEM medium containing only 2.5% of FBS and the treatments were performed in absence of FBS.
E2 and E4 were applied at 4 concentrations each (10^−7M, 10^−8M, 10^−9M, 10^−10M). In parallel, cells were treated with a positive control (HKGS 1% for human keratinocytes and PDGF-BB at 10 ng/ml for human fibroblasts).
To monitor cell colonization and to evaluate the gap closure rate, pictures of the gap were taken after different times: at time 0 h, corresponding to the beginning of the treatment with E2 or E4 and to the removal of the culture insert, at time 6 h and at time 24 h (corresponding to the end of the treatments with E2 or E4). Pictures were taken with a microscope Zeiss (Axiover 25-10× objective) and with a camera Invenio2EIII (DeltaPix—Lux-Optic). The colonized areas were quantified from the pictures by the use of the WimAsis platform—WimScratch software. For each insert, 3 pictures were taken at each time. As each condition was performed in triplicates, it means a total of 9 pictures per condition and per time point of acquisition

## OO [hydrogen peroxide, reference compound]
[1]
  levels of ROS, positive control: tendency to increase the levels of ROS

## [^14C]-estetrol
[2]; 0.5 hours
  Concentration of radioactivity in tissue, Skin: Non-pigmented: 2.59 microgram equivalents/gram
  Tissue: Blood ratio, Skin: Non-pigmented: 1.05
[2]; 1 hour
  Concentration of radioactivity in tissue, Skin: Non-pigmented: 0.771 microgram equivalents/gram
  Tissue: Blood ratio, Skin: Non-pigmented: 0.99
[2]; 2 hours
  Concentration of radioactivity in tissue, Skin: Non-pigmented: 0.465 microgram equivalents/gram
  Tissue: Blood ratio, Skin: Non-pigmented: 1.72
[2]; 5 hours
  Concentration of radioactivity in tissue, Skin: Non-pigmented: 0.189 microgram equivalents/gram
  Tissue: Blood ratio, Skin: Non-pigmented: 1.66
[2]; 8 hours
  Concentration of radioactivity in tissue, Skin: Non-pigmented: 0.361 microgram equivalents/gram
  Tissue: Blood ratio, Skin: Non-pigmented: 1.77
[2]; 24 hours
  Concentration of radioactivity in tissue, Skin: Non-pigmented: BLQ
[2]; 48 hours
  Concentration of radioactivity in tissue, Skin: Non-pigmented: BLQ
[2]; single oral dose, 0.5 hours
  Concentration of radioactivity in the liver (greatest concentration): 12.5 μg equivalents/g
[3]; 0.5 hours
  Concentration of radioactivity in tissue, Skin: Non-pigmented: 1.89 microgram equivalents/gram
  Concentration of radioactivity in tissue, Skin: Pigmented: 2.85 microgram equivalents/gram
  Tissue: Blood ratio, Skin: Non-pigmented: 0.71
  Tissue: Blood ratio, Skin: Pigmented: 1.07
  Total amount of radioactivity in tissue, Skin (non-pigmented): 1.136 % dose administered/tissue
  Total amount of radioactivity in tissue, Skin (pigmented): 1.714 % dose administered/tissue
[3]; 8 hours
  Concentration of radioactivity in tissue, Skin: Non-pigmented: 0.090 microgram equivalents/gram
  Concentration of radioactivity in tissue, Skin: Pigmented: 0.163 microgram equivalents/gram
  Tissue: Blood ratio, Skin: Non-pigmented: 0.66
  Tissue: Blood ratio, Skin: Pigmented: 1.03
  Total amount of radioactivity in tissue, Skin (non-pigmented): 0.059 % dose administered/tissue
  Total amount of radioactivity in tissue, Skin (pigmented): 0.099 % dose administered/tissue
[3]; 24 hours
  Concentration of radioactivity in tissue, Skin: Non-pigmented: BLQ
  Concentration of radioactivity in tissue, Skin: Pigmented: 0.113 microgram equivalents/gram
  Total amount of radioactivity in tissue, Skin (non-pigmented): <0.041 % dose administered/tissue
  Total amount of radioactivity in tissue, Skin (pigmented): 0.061 % dose administered/tissue
[3]; 7 days
  Concentration of radioactivity in tissue, Skin: Non-pigmented: BLQ
  Concentration of radioactivity in tissue, Skin: Pigmented: BLQ
  Total amount of radioactivity in tissue, Skin (non-pigmented): <0.043 % dose administered/tissue
  Total amount of radioactivity in tissue, Skin (pigmented): <0.043 % dose administered/tissue
[3]; 14 days
  Concentration of radioactivity in tissue, Skin: Non-pigmented: BLQ
  Concentration of radioactivity in tissue, Skin: Pigmented: BLQ
  Total amount of radioactivity in tissue, Skin (non-pigmented): <0.038 % dose administered/tissue
  Total amount of radioactivity in tissue, Skin (pigmented): <0.038 % dose administered/tissue
[3]; 35 days
  Concentration of radioactivity in tissue, Skin: Non-pigmented: BLQ
  Concentration of radioactivity in tissue, Skin: Pigmented: BLQ
  Total amount of radioactivity in tissue, Skin (non-pigmented): <0.041 % dose administered/tissue
  Total amount of radioactivity in tissue, Skin (pigmented): <0.041 % dose administered/tissue
[3]; single oral dose, 0.5 hours
  Concentration of radioactivity in the liver (greatest concentration): 13.7 μg equivalents/g
[3]; single oral dose, 7 days after dosing
  Concentration of radioactivity in the liver: 0.410 μg equivalents/g
[3]; single oral dose, by 24 hours
  Concentration of radioactivity, majority of tissues (BLQ): < 0.076 μg equivalents/g

B1: PDGF-BB: positive control at 10 ng/ml for human fibroblasts (protein, UniProt P01127 82-190, looked up)
Platelet-derived growth …: SLGSLTIAEPAMIAECKTRTEVFEISRRLIDRTNANFLVWPPCVEVQRCSGCCNNRNVQCRPTQVQLRPVQVRKIEIVRKKPIFKKATVTLEDHLACKCETVAAARPVT
[4]
  NHDF colonized area, positive reference: significantly increases the colonized area

From patent publication US20250099485A1, “COMPOSITIONS FOR PROMOTING HAIR GROWTH” (ESTETRA SRL, priority 2021, published 2025)
